{"source": "patent US20140255982A1", "about": "“METHOD OF CANCER DIAGNOSIS USING THE ANALYSIS OF ISOTOPES” (priority 2007, published 2014)", "origin": "cited, not measured here", "key": {"microorganisms": {"test_system": "microorganisms", "settings": "deuterium in the form of D2O"}, "rats": {"test_system": "rats", "settings": "within 5 days; deuterium in the form of D2O"}}, "data": [{"compound": "[2H]O[2H]", "note": "[D2O]", "values": [{"measurement": "inhibitory activity against microorganisms", "setting": "microorganisms", "result": 92, "unit": "%"}, {"measurement": "kill rate of rats", "setting": "rats", "result": 99.5, "unit": "%"}]}]}
